Tested on: 843782-103-R-J1-PDC complex spheroid viability
Experiment: Anticancer human tumor 843782-103-R-J1-PDC patient-derived lung adenocarcinoma cell line growth inhibition [RAS]
Settings: for viability, T/C: stronger effect = lower value
In short: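 Agents were tested in combination matrices in half-log decrements from a top concentration at or near clinical Cmax (10 microM if undetermined). Targets were multi-cell spheroids of tumour lines plus HUVEC and MSC stromal cells.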
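Further: viability read after seven days of compound exposure.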

Work on `CC1(C)CCC(Nc2ncc(C(F)(F)F)c(-c3c[nH]c4c(P(C)(C)=O)c(C#N)ccc34)n2)CN1` (centres undefined) + C#Cc1c(F)ccc2cc(O)cc(-c3ncc4c(N5CC6CCC(C5)N6)nc(OCC56CCCN5CC(F)C6)nc4c3F)c12 yielded an IC50 (curve of first compound, second compound 0.0316 µM) of 22.6 nM, an IC50 (curve of first compound, second compound 0.1 µM) of 17.4 nM and an IC50 (curve of first compound, second compound 0.316 µM) of 20.1 nM. For the same molecule, the IC50 (curve of first compound, second compound 1 µM) was 7.9 nM, the IC50 (curve of first compound, second compound 3.16 µM) was 5.68 nM and the IC50 (curve of first compound, second compound 10 µM) was 0.949 nM. For the same molecule, the viability, T/C (second compound 0.0316 µM, first compound 0.000949 µM) was 102%, the viability, T/C (second compound 0.0316 µM, first compound 0.003 µM) was 93.6% and the viability, T/C (second compound 0.0316 µM, first compound 0.00949 µM) was 72.1%. For the same molecule, the viability, T/C (second compound 0.0316 µM, first compound 0.03 µM) was 44.9%, the viability, T/C (second compound 0.0316 µM, first compound 0.0949 µM) was 21.1% and the viability, T/C (second compound 0.0316 µM, first compound 0.3 µM) was 22.7%. The viability, T/C (second compound 0.1 µM, first compound 0.000949 µM) was 103%, the viability, T/C (second compound 0.1 µM, first compound 0.003 µM) was 88.1% and the viability, T/C (second compound 0.1 µM, first compound 0.00949 µM) was 58.6%. For the same molecule, the viability, T/C (second compound 0.1 µM, first compound 0.03 µM) was 42.5%, the viability, T/C (second compound 0.1 µM, first compound 0.0949 µM) was 26.8% and the viability, T/C (second compound 0.1 µM, first compound 0.3 µM) was 23.1%. For the same molecule, the viability, T/C (second compound 0.316 µM, first compound 0.000949 µM) was 101%, the viability, T/C (second compound 0.316 µM, first compound 0.003 µM) was 76.2% and the viability, T/C (second compound 0.316 µM, first compound 0.00949 µM) was 58.1%. It also gave a viability, T/C (second compound 0.316 µM, first compound 0.03 µM) of 51.5%, a viability, T/C (second compound 0.316 µM, first compound 0.0949 µM) of 25.6% and a viability, T/C (second compound 0.316 µM, first compound 0.3 µM) of 24.6%. The viability, T/C (second compound 1 µM, first compound 0.000949 µM) was 88.5%, the viability, T/C (second compound 1 µM, first compound 0.003 µM) was 69% and the viability, T/C (second compound 1 µM, first compound 0.00949 µM) was 46.2%. It also gave a viability, T/C (second compound 1 µM, first compound 0.03 µM) of 30.9%, a viability, T/C (second compound 1 µM, first compound 0.0949 µM) of 26.4% and a viability, T/C (second compound 1 µM, first compound 0.3 µM) of 20.5%. For the same molecule, the viability, T/C (second compound 3.16 µM, first compound 0.000949 µM) was 61%, the viability, T/C (second compound 3.16 µM, first compound 0.003 µM) was 57.4% and the viability, T/C (second compound 3.16 µM, first compound 0.00949 µM) was 44%. The viability, T/C (second compound 3.16 µM, first compound 0.03 µM) was 29.2%, the viability, T/C (second compound 3.16 µM, first compound 0.0949 µM) was 24.9% and the viability, T/C (second compound 3.16 µM, first compound 0.3 µM) was 24.6%. For the same molecule, the viability, T/C (second compound 10 µM, first compound 0.000949 µM) was 46.6%, the viability, T/C (second compound 10 µM, first compound 0.003 µM) was 44.9% and the viability, T/C (second compound 10 µM, first compound 0.00949 µM) was 37.4%. It also gave a viability, T/C (second compound 10 µM, first compound 0.03 µM) of 59.2%, a viability, T/C (second compound 10 µM, first compound 0.0949 µM) of 26% and a viability, T/C (second compound 10 µM, first compound 0.3 µM) of 21.8%.
`CC(=O)OC12COC1CC(O)C1(C)C(=O)C(O)C3=C(C)C(OC(=O)C(O)C(NC(=O)OC(C)(C)C)c4ccccc4)CC(O)(C(OC(=O)c4ccccc4)C21)C3(C)C` (centres undefined) was tested, and the viability, T/C (compound 0.0316 µM) was 3.82% [middle of 4 runs], the viability, T/C (compound 0.1 µM) was 4.87% [middle of 4 runs] and the viability, T/C (compound 0.316 µM) was 5.01% [middle of 4 runs]. The viability, T/C (compound 1 µM) was 4.69% [middle of 4 runs], the viability, T/C (compound 3.16 µM) was 6.26% [middle of 4 runs] and the viability, T/C (compound 10 µM) was 8.18% [middle of 4 runs]. For the same molecule, the IC50 (curve of compound) was under 31.6 nM.

From PubChem BioAssay AID2060883 (Molecular Pharmacology Branch, DTP, NCI, 2025)
